Test results as given in US9981916B2 (Genentech, Inc., priority 2013, dated 2018).

Each compound was assayed against T1, RORc ligand binding domain (Homo sapiens, UniProt P51449) (assay: In vitro RORc ligand binding assay (25-[3H]hydroxycholesterol displacement, filter binding)). Details: 6 nM 25-[3H]hydroxycholesterol, 0.6 ug/mL RORc receptor, 3 h at 25° C.
T1 construct: host or cells: E. coli
T1 sequence (P51449 269-508 limits assumed): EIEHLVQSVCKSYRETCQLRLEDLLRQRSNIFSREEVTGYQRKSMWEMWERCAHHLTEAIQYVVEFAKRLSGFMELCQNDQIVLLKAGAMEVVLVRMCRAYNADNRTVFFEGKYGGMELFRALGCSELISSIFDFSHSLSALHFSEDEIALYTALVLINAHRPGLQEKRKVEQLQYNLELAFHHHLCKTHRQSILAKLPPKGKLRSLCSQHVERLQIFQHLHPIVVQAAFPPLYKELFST
Description: Example 17: In Vitro RORc Ligand Binding Assay
This assay was used to determine a compound's potency in inhibiting activity of RORc by determining, Kiapp, IC50, or percent inhibition values.
On day of the assay, 100 uL of 0.05% CHAPS (in deionized H2O) was added to all wells of the GFB Unifilter plate and allowed soak for 1 h. A wash buffer of 50 mM HEPES (pH 7.4), 150 mM NaCl, and 5 mM MgCl2 was prepared to wash the filter plate. To prepare an assay buffer, BSA was added to the wash buffer to reach 0.01% and DTT was added to reach 1 mM.
For IC50 mode, 10 mM compound stocks were serially diluted in DMSO with DMSO to give 20× required final concentration in DMSO (15 uL compound+30 uL DMSO). The 20× compound stocks were diluted in DMSO with Assay Buffer 4-fold to reach 5× the final test concentration in 25% DMSO (10 uL compound+30 uL Assay Buffer). Solutions were mixed by aspiration several times with a pipette set on 50 uL volume. For the assay, 10 uL of 5× compound stock solutions in 25% DMSO were added to the assay plate in duplicate.
For two point screening, 10 mM stock compound solutions were diluted in DMSO to obtain 200 uM (20× the high test concentration) and then diluted 10-fold further to reach 20 uM (20× the low test concentration). The 20× stocks were diluted 4-fold with Assay Buffer (10 uL compound+30 uL Assay Buffer) to reach 5× the test concentrations (50 uM and 5 uM) and 10 uL were added to two assay plates for the duplicate wells. With each concentration tested on 2 plates, each set of 80 compounds used 4 assay plates (1 uM and 10 uM, with n=2).
25-hydroxycholesterol (1 uM) was used to determine the level of NSB signal is prepared in DMSO as for compounds above, then diluted in Assay Buffer to give a final concentration of 5 uM. For 25-hydroxycholesterol in 25% DMSO/75% Assay Buffer; 10 uL per well was used for NSB samples. Wells for Total Binding and No Receptor sample determination contained 10 uL of 25% DMSO/75% Assay Buffer per well.
25-[^3H]hydroxycholesterol was diluted in Assay Buffer to obtain 15 nM and vortex to mix. Add 20 uL to all wells to reach 6 nM final concentration in the assay.
Stock receptor solution was diluted in assay buffer to obtain 1.5 ug/mL in Assay Buffer. 20 uL was added to all wells. For No Receptor samples, 20 uL Assay Buffer was substituted for receptor solution.
Assay plates were 96-well polypropylene V-bottom plates. 10 uL of 5× compound in 25% DMSO/75% Assay Buffer was added to Test wells. 10 uL of 25% DMSO/75% Assay Buffer was added to Total Binding or No Receptor wells. 10 uL of 5 uM 25-hydroxycholesterol in 25% DMSO/75% Assay Buffer was added to NSB wells. 20 uL of 15 nM 25-[^3H]hydroxycholesterol prepared in Assay Buffer was added to all wells. 20 uL of 1.5 ug/mL RORc receptor was added to wells (or […] Assay Buffer to No R wells). Following addition to the wells, the plates were incubated 3 h at 25° C.
Using a Packard Filtermate Harvester, the filter plate were washed 4 times following transfer of the incubated samples. Plates were dry-filtered completely (2 h at 50° C. or overnight at room temperature). 50 uL Microscint 0 was added to all wells and read on Topcount protocol Inverted.
Final concentrations were as follows: 50 mM HEPES buffer (pH 7.4); 150 mM NaCl; 1 mM DTT; 5 mM MgCl2; 0.01% BSA; 5% DMSO; 0.6 ug/mL RORc receptor; 6 nM 25-[^3H]hydroxycholesterol. For NSB wells, 1 uM 25-hydroxycholesterol was also present.

SMILES | IC50
CC1(C)[C@H]2CC[C@]1(COc1ccccn1)c1nnc(-c3c(F)cccc3F)cc12 [Example 120, (5R,8R)-3-(2,6-difluorophenyl)-9,9-dimethyl-8-[(pyridin-2-yloxy)methyl]-5,6,7,8-tetrahydro-5,8-methanocinnoline] | 126 nM
CC1(C)[C@H]2CC[C@]1(Cc1ncon1)c1nnc(-c3c(F)cccc3F)cc12 [Example 57, (5R,8R)-3-(2,6-difluorophenyl)-9,9-dimethyl-8-(1,2,4-oxadiazol-3-ylmethyl)-5,6,7,8-tetrahydro-5,8-methanocinnoline] | 85 nM
CC1(C)[C@H]2CC[C@]1(CO)c1nnc(Oc3c(F)cccc3F)cc12 [Example 145, ((5R,8R)-3-(2,6-difluorophenoxy)-9,9-dimethyl-5,6,7,8-tetrahydro-5,8-methanocinnolin-8-yl)methanol] | 2000 nM
CC1(C)[C@@H]2CC[C@@]1(C(=O)N1CC(F)C1)c1nnc(-c3c(F)cccc3F)cc12 [Example 93, [(5S,8S)-3-(2,6-difluorophenyl)-9,9-dimethyl-6,7-dihydro-5,8-methanocinnolin-8(5H)-yl](3-fluoroazetidin-1-yl)methanone] | 127 nM
CC1(C)[C@@H]2CC[C@@]1(C(=O)NCC1CC1)c1nnc(-c3c(F)cccc3F)cc12 [Example 202, (5S,8S)-N-(cyclopropylmethyl)-3-(2,6-difluorophenyl)-9,9-dimethyl-5,6,7,8-tetrahydro-5,8-methanocinnoline-8-carboxamide] | 193 nM
CC1(C)[C@@H]2CC[C@@]1(C(=O)N1CCC[C@H]1C(N)=O)c1nnc(-c3c(F)cccc3F)cc12 [Example 250, (S)-1-((5S,8S)-3-(2,6-difluorophenyl)-9,9-dimethyl-5,6,7,8-tetrahydro-5,8-methanocinnoline-8-carbonyl)pyrrolidine-2-carboxamide] | 3090 nM

Continued, values first:

IC50 | SMILES
454 nM | C[C@@H]1CN(C[C@@]23CC[C@@H](c4cc(-c5c(F)cccc5F)nnc42)C3(C)C)C(=O)O1 [Example 314, (R)-3-(((5R,8S)-3-(2,6-difluorophenyl)-9,9-dimethyl-5,6,7,8-tetrahydro-5,8-methanocinnolin-8-yl)methyl)-5-methyloxazolidin-2-one]
202 nM | Cc1nc([C@@]23CC[C@@H](c4cc(-c5c(F)cccc5F)nnc42)C3(C)C)co1 [Example 192, 4-((5R,8S)-3-(2,6-difluorophenyl)-9,9-dimethyl-5,6,7,8-tetrahydro-5,8-methanocinnolin-8-yl)-2-methyloxazole]
2420 nM | CC1(C)[C@@H]2CC(=O)[C@@]1(C)c1nnc(-c3ccccc3F)cc12 [Example 50, (5S,8R)-3-(2-fluorophenyl)-8,9,9-trimethyl-5,8-dihydro-5,8-methanocinnolin-7(6H)-one]
2460 nM | CC(=O)OCC1(C)[C@@H]2CC[C@@]1(C)c1nnc(-c3ccccc3F)cc12 (some centres unmarked)
2070 nM | CC(=O)N[C@@]12CC[C@@H](c3cc(-c4ccccc4F)nnc31)C2(C)C [Example 81, N-[(5R,8R)-3-(2-fluorophenyl)-9,9-dimethyl-6,7-dihydro-5,8-methanocinnolin-8(5H)-yl]acetamide]
2240 nM | CN(C(=O)OC(C)(C)C)[C@]12CC[C@H](c3cc(-c4c(F)cccc4F)nnc31)C2(C)C [Example 280, tert-butyl ((5S,8S)-3-(2,6-difluorophenyl)-9,9-dimethyl-5,6,7,8-tetrahydro-5,8-methanocinnolin-8-yl)(methyl)carbamate]
218 nM | CN(C(=O)OC(C)(C)C)[C@@]12CC[C@@H](c3cc(-c4c(F)cccc4F)nnc31)C2(C)C [Example 281, tert-butyl ((5R,8R)-3-(2,6-difluorophenyl)-9,9-dimethyl-5,6,7,8-tetrahydro-5,8-methanocinnolin-8-yl)(methyl)carbamate]
45 nM | COC[C@]12CC[C@H](c3cc(-c4c(F)cccc4Cl)nnc31)C2(C)C [Example 24, (5S,8S)-3-(2-chloro-6-fluorophenyl)-8-(methoxymethyl)-9,9-dimethyl-5,6,7,8-tetrahydro-5,8-methanocinnoline]
